Laboratory results from US9884812B2, “Use of DDX3X inhibitors for the treatment of pneumovirus infections” (priority 2014, dated 2018).
≈ marks a conversion by molar mass, not a printed value. Read-outs that look alike come from different tables or passages of the source.

Tests used:
hRSV (strain A2) = experiment: Plaque inhibition assay, hRSV; format: cell-based, human respiratory syncytial virus; details: for Plaque size relative to DMSO control: hRSV plaque assay; for IC50: human respiratory syncytial virus, HEp-2, 120 h, Day 5, read-out: IC50 (plaque number vs DMSO control)
Procedure: Example: Plaque inhibition assay
(§1) An identical assay procedure was carried out for hRSV (strain A2) bovine RS (strain Snook) and PVM (strain 15). Virus stocks were diluted 10 fold in GMEM (Invitrogen) so that the wells containing cells received sufficient virus to generate approximately 2000, 200 and 20 plaques per well.
The overlay medium also contained the compound to be tested at appropriate concentrations. Typically the 6 concentrations of the test compounds used were: 100 μM, 31.6 μM, 10 μM, 3.16 μM, 1 μM and 0.316 μM.
Stocks of the test compounds were prepared in DMSO (Sigma) (carrier). Each stock compound was diluted 1 in 200 in overlay medium to give dilutions stated above.
(§2) Cells of a standard cell line known to support pneumovirus replication (typically HEp2 or BSC1 cells) were grown in standard 12 well plates at 37° C. in an atmosphere of 5% (v/v) CO2 until confluent. Medium was aspirated from the cells and replaced with 200 μl aliquots of virus. Aliquots were prepared by diluting virus stocks 10-fold in GMEM (Invitrogen) as described above with no FCS. A mock (no virus) was also set up to test cell viability. The virus was incubated with the cells for 1 hour at 33° C. with gentle rocking every 5-10 minutes. The inocula were removed and 2 ml of overlay medium was added. Overlay medium was either test (plus compound) or control (medium alone or medium containing DMSO). The plates were incubated at 33° C. for 4-8 days to allow plaques to develop as indicated. A volume of 1 ml of additional overlay medium (containing the test compound as appropriate) was added every 3 days. All virus dilutions were carried out with each concentration of test compound, or treated as controls, and each was carried out in triplicate.
(§3) Following incubation, cells were fixed by addition of an equal volume of 4% (v/v) glutaraldehyde (Sigma) in PBS with further incubation for a minimum of 2 hours. The fixing solution was washed off under a slow flowing stream of water and 1 ml of crystal violet (0.075% w/v: Sigma) was added and left for 20 minutes at room temperature. The crystal violet was removed and the fixed cell monolayers washed. Plates were air dried. Plaques counts were recorded from wells with >20 and <200 in number. These numbers provide the most robust statistical reliability for viable plaque counts.
This experimental approach screens the ability of compounds to block the formation of plaques.

[1] = Solubility in cell medium; format: physicochemical; details: for Solubility behaviour in cell medium: at 100 μM; for Solubility in cell medium: solution of ligand in DMSO (20 mM) diluted in cell media to 100 μM, scale from 'very poor' (almost insoluble) to 'very good' (freely soluble over extended periods at 4° C.)
RSV = experiment: 96 well plate TCID50 (cellular RSV TCID50 assay); format: cell-based; details: for Activity: summary of activities in cellular RSV TCID50 assay, symbols − to +++++ not defined
Procedure: (§4) This method provides a rapid approach to initially screen compounds and was developed as an increased number of compounds were synthesised. Cells of a standard cell line known to support pneumovirus replication (typically HEp2 or BSC1 cells) were grown to 95% confluence in a 96 well plate. Virus was then added over 5 different half log dilutions starting at a multiplicity of infection of 0.02 plus mock control. Three dilutions of compound plus a DMSO control were screened per plate. […] Identical plate repeats for each compound dilution were fixed in subsequent days as indicated.
Stained plates were read at 595 nm, higher optical density (OD) readings indicate more viable cells remain.

HEp2 cells [2] = experiment: MTT toxicity assay; format: cell-based; details: for Appearance of cell monolayers: compared with carrier controls
Procedure: All experiments shown were carried out in HEp2 cells. Cells were grown in 96 well plates overnight as previously described in 10% FCS medium to 95% confluence level. The medium was aspirated off and replaced with 200ul media with 2% FCS +/− compounds in DMSO carrier as indicated at an identical dilution series to that used in the plaque assays. 8 wells were used per compound/carrier alone dilution. An additional 2 rows of 8 cells were grown in medium alone for reference and subsequently 8 would be used as a cell death control as described below. Cells were incubated at 33° C. as indicated. If the incubation period exceeded 4 days the medium was replaced with the appropriate amount of fresh medium plus compound.
MTT assays were commenced 4 hours before the time period expired. Here 20 uL of MTT [(3-{4,5-dimethylthiazol-2-yl}-2,5-diphenyltetrazolium bromide)] solution (7.5 mg/ml in
PBS) was added. […] The cells were placed back in the incubator at 33° C. After 4 hours, 100 μL of a stop solution (50% formamide, 20% w/v SDS) was added and pipetted to dissolve the substrate. Plates were then left overnight to allow the bubbles to disappear and the OD was recorded at 595 nm. Following subtraction of background solution colour (cell death control), the optical density was expressed as a percentage compared to the DMSO control on each appropriate plate.

PVM (strain 15) = experiment: Plaque inhibition assay, PVM; format: cell-based, pneumonia virus of mice; details: PVM plaque assay
Procedure: as §1, §2, §3
(§5) Compounds 1, 4 and 6 were also tested against bovine RSV and pneumonia virus of mice (PVM).
A full plaque assay was carried out for compound 4 using HEp2 cells, with assays of 5 days and 6 days after incubation.

Bovine RSV = experiment: Plaque inhibition assay, bovine RSV; format: cell-based, bovine respiratory syncytial virus; details: for Plaque size: bRSV plaque assay; for IC50: bovine RSV, 6-day assay, HEp2 cells
Procedure: as §1, §2, §3, §5
The compounds were tested with a 6-day assay using HEp2 cells.

HEp2 or BSC1 cells = experiment: Toxicity to cells in the TCID50 screen (mock control); format: cell-based; details: cellular RSV TCID50 assay tables
Procedure: as §4, with “Cells of a standard cell line known to support pneumovirus replication (typically HEp2 or BSC1 cells) were grown to 95% confluence in a 96 well plate.” left out

HEp2 cells [3] = experiment: Toxicity observed in plaque assay, HEp2 cells; format: cell-based; details: at 100 μM
Procedure: as §2

Cc1ccccc1NC(=O)Nc1cccc([N+](=O)[O-])c1 [Compound 1, 3-(2-methylphenyl)-1-(3-nitrophenyl)urea]
Plaque size relative to DMSO control (hRSV (strain A2)): significantly reduce the size of plaques | Plaque size relative to DMSO control (hRSV (strain A2); listed as compound 1): smaller than in the DMSO control | Solubility behaviour in cell medium [1]: appearance of insolublity | solubility ([1]; cell medium, aqueous buffer, kinetic from dmso stock, read-out: Upper limit of soluble concentration): 5 to 10 µM (≈ 1.36 to 2.71 µg/mL) | Solubility in cell medium [1]: poor | Activity in the TCID50 assay at higher concentration (RSV; at >10 μM): no increase in activity | Sensitivity in MTT assay (HEp2 cells [2]; days 3 and 4, disappeared after 5 days): increased sensitivity | Concentration above which inhibition of activity is seen (MTT) (HEp2 cells [2]; over the time course): above 10 μM | Plaque size (PVM (strain 15)): significantly reduce the size of plaques | Plaque size (Bovine RSV): significantly reduce the size of plaques | IC50 (Bovine RSV): precipitated out before 50% reduction was seen | Toxicity (HEp2 or BSC1 cells): toxic at 32 μM

Cc1ccccc1NC(=O)Nc1cccc(C#N)c1 [Compound 3, 3-(3-cyanophenyl)-1-(2-methylphenyl)urea]
Plaque size relative to DMSO control (hRSV (strain A2)): much smaller | Plaque size (hRSV (strain A2); hRSV, HEp2 cells, 5 days, at 31.6 μM and to some extent 10 μM): very small | IC50 (hRSV (strain A2); hRSV, HEp2 cells): ~50 µM | Solubility in cell medium [1]: good | Toxicity (HEp2 or BSC1 cells): low

Cc1ccccc1NC(=O)Nc1ccc(C#N)cc1 [Compound 6, 1-(4-cyanophenyl)-3-(2-methylphenyl)urea]
Plaque size relative to DMSO control (hRSV (strain A2)): significantly reduce the size of plaques | IC50 (plaque number vs DMSO control) (hRSV (strain A2); hRSV, HEp2 cells, Day 6): 50% reduction was not reached | IC50 (plaque number vs DMSO control) (hRSV (strain A2); hRSV, HEp2 cells, Day 7): 50% reduction was not reached | IC50 (hRSV (strain A2); hRSV, HEp2 cells): 10 µM | Solubility in cell medium [1]: good | Appearance of cell monolayers (HEp2 cells [2]): appeared intact | Plaque size (PVM (strain 15)): significantly reduce the size of plaques | IC50 (Bovine RSV; Bovine orthopneumovirus, HEp-2, 144 h, read-out: IC50): 15 µM | Plaque size (Bovine RSV): significantly reduce the size of plaques | Toxicity (HEp2 or BSC1 cells): low

CSc1ccc(NC(=O)NCCCOCCOCCOCCCNC(=O)Nc2ccc(SC)cc2)cc1 [Compound 37, 1-[4-(methylsulfanyl)phenyl]-3-[3-(2-{2-[3-({[4-(methylsulfanyl)-phenyl]carbamoyl}amino)propoxy]ethoxy}ethoxy)propyl]urea]
IC50 (hRSV (strain A2); hRSV, HEp2 cells): 17.5 µM | Solubility behaviour in cell medium [1]: some signs of precipitating out of solution | Solubility in cell medium [1]: good | Appearance of cell monolayers (HEp2 cells [2]): appeared intact | Toxicity in plaque assay (HEp2 cells [3]): showed toxicity | Toxicity (HEp2 or BSC1 cells): toxic at 50 μM

Cc1ccccc1NC(=O)Nc1ccc(SC(F)(F)F)cc1 [Compound 42, 1-(o-tolyl)-3-(4-((trifluoromethyl)thio)phenyl)urea]
Solubility in cell medium [1]: Good | Activity (RSV): Plaques reduced | Toxicity (HEp2 or BSC1 cells): Very toxic at 100 μM

Cc1ccccc1NC(=O)Nc1ccc(OC(F)(F)F)cc1 [Compound 43, 1-(o-tolyl)-3-(4-(trifluoromethoxy)phenyl)urea]
Solubility in cell medium [1]: Good | Activity (RSV): Plaques reduced | Toxicity (HEp2 or BSC1 cells): Toxic at 100 μM

Cc1ccccc1NC(=O)Nc1ccc(I)cc1 [Compound 44, 1-(4-iodophenyl)-3-(o-tolyl)urea]
Solubility in cell medium [1]: Moderate at 100 μM | Activity (RSV): Inactive | Toxicity (HEp2 or BSC1 cells): Low

COc1ccc(NC(=O)Nc2ccccc2C)cc1OC [Compound 45, 1-(3,4-dimethoxyphenyl)-3-(o-tolyl)urea]
Solubility in cell medium [1]: Good | Activity (RSV): Inactive | Toxicity (HEp2 or BSC1 cells): Low
